Experimental data published in US8859573B2, “Pyrimidinone and pyridinone compounds for use in the treatment of diseases or conditions mediated by Lp-PLA2” (Glaxo Group Limited, priority 2010, dated 2014).
pIC50: −log10 of the molar value. Counter-ions that a name gives are not always drawn.

Experiments:
Lp-PLA2 from plasma = target: T1, Lp-PLA2 from plasma (Homo sapiens, UniProt Q13093); test: Lp-PLA2 human plasma assay (Thio-PAF assay); type: biochemical; conditions: pooled human plasma; read-out: pIC50 values in the thio-PAF assay (converted)
T1 construct: from tissue; host or cells: pooled human plasma
T1 sequence (Q13093 22-441): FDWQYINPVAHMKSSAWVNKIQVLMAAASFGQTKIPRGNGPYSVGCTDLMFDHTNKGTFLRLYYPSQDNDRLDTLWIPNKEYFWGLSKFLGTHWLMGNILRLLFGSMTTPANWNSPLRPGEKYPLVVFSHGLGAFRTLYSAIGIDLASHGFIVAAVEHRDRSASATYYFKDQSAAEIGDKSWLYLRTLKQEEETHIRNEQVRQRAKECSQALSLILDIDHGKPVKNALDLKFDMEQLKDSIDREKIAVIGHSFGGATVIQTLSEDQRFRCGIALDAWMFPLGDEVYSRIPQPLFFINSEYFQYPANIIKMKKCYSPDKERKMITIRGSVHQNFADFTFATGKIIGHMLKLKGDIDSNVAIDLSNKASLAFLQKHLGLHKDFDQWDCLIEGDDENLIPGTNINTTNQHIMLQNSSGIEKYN
Source text: (3) Lipoprotein-Associated Phospholipase A2 (Lp-PLA2) Human Plasma Assay (Also Referred to as “Thio-PAF Assay”)
The human plasma assay utilizes a thioester analog of PAF (phosphatidylcholine), where hydrolysis yields to the formation of a phospholipid containing a free thiol group. The amount of thiol is quantitated continuously by reacting with CPM (7-diethylamino-3-(4′-maleimidylphenyl)-4-methylcoumarin), a maleimide which increases in fluoresence after Michael addition of thiols. This assay may detect the activity of Lp-PLA2 from plasma, as determined by specific inhibition by Lp-PLA2 inhibitors.
The thio-PAF assay was run as a quenched 15 μL assay. Compounds source plate was prepared by making 1:3 (by volume) serial dilution of the compounds into pure DMSO on 384-well microplate. 0.01 μL of compounds on compound source plate were transferred to 384 well Greiner 784076 (black) low-volume plates by ECHO liquid dispenser. 8 μL pooled human plasma, which was previously aliquoted and frozen, was added. Plates were centrifuged for 10 sec at 500 rpm. After 30 minutes preincubation, 2 μL of substrate (2.5 mM thio-PAF, 3.2 mM NEM (N-ethylmaleimide) [made fresh daily in DMSO], and 32 μM CPM [from a DMSO stock] in assay buffer of 50 mM HEPES, pH7.4, 150 mM NaCl, 1 mM CHAPS was added to 384 well Greiner 784076 (black) low-volume plates by BRAVO liquid handling station. Plates were centrifuged for 10 sec at 500 rpm. Plate was covered to protect from light and incubated for 2 min at room temperature. Reaction was quenched with 5 μL of 5% aqueous trifluoroacetic acid (TFA). Plates were covered to protect from light and incubated for 40 min at room temperature. Plates were read at ex: 380/em: 485 using-Envision microplate reader. PIC50 data, curve and QC analysis was conducted by using XLFit module in Excel.

[1] = target: T2, recombinant human Lp-PLA2 (Homo sapiens, UniProt Q13093); test: Recombinant human Lp-PLA2 assay (rhLp-PLA2, PED6 assay); type: biochemical; conditions: upper limit for pIC50 in this assay is 9.3
T2 sequence (Q13093 22-441): T1 sequence (Q13093 22-441)
Source text: (1) Recombinant Human Lp-PLA2 Assay (rhLp-PLA2) (Also Referred to as “PED6” Assay)
N-((6-(2,4-dinitrophenyl)amino)-hexanoyl)-2-(4,4-difluoro-5,7-dimethyl-4-bora-3a,4a-diaza-s-indacene-3-pentanoyl)-1-hexadecanoyl-sn-glycero-3-phosphoethanolamine, triethylammonium salt (PED6) is a commercially available fluorescently-labelled phospholipid, which is commercially available from Molecular Probes. There is a quenching para-nitro phenyl (PNP) group in the sn3 position and a Bodipy fluorescein (FL) group in the sn2 position. Upon cleavage with Lp-PLA2, the Bodipy F1 group is liberated and then may result in an increase in fluorescence. Inhibitors of Lp-PLA2 therefore prevent this cleavage and no fluorescent increase is observed.
The PED6 assay was run as an […] 10 μL assay. Compounds source plate was prepared by making 1:3 (by volume) serial dilution of the compounds into pure DMSO on 384-well microplate. Then, 0.01 μL of compounds on compound source plate were transferred into 384 well Greiner 784076 (black) plates by ECHO liquid dispenser. 5 μL of recombinant human Lp-PLA2 enzyme (2 nM rhLp-PLA2 in assay buffer of 50 mM HEPES, pH7.4, 150 mM NaCl, 1 mM CHAPS) was added to each well of the plate with compounds. Plates were centrifuged for 10 sec at 500 rpm. After 30 minutes preincubation, […] substrate (4 μM PED6 [from 5 mM DMSO stock] in assay buffer of 50 mM HEPES, pH7.4, 150 mM NaCl, 1 mM CHAPS) was added to 384 well Greiner 784076 (black) plates. Plates were centrifuged for 10 sec at 500 rpm. Plate was covered to protect from light and incubated for 20 min at room temperature. Plates were read for fluorescence intensity at ex: 480/em: 540 using ViewLux microplate imager. PIC50 data, curve and QC analysis was conducted by using XL fit module in Excel.

SMILES | IC50 (Lp-PLA2 from plasma) [µM] | pIC50 [1]
COc1ncc(Cn2cc(C)c(OCCc3ccc(Oc4ccc(F)c(F)c4)nc3)nc2=O)cn1 [Example 70, 4-(2-(6-(3,4-difluorophenoxy)pyridin-3-yl)ethoxy)-1-((2-methoxypyrimidin-5-yl)methyl)-5-methylpyrimidin-2(1H)-one] | ≤ 1 | < 8.00
CCn1ccc(OCc2ccc(Oc3ccc(Cl)c(C(F)(F)F)c3)cc2)cc1=O [Example 23, 4-{[(4-{[4-Chloro-3-(trifluoromethyl)phenyl]oxy}phenyl)methyl]oxy}-1-ethyl-2(1H)-pyridinone] | > 10 | < 8.00
Cc1ccc(Oc2ccc(COc3ccn(Cc4cnn(C)c4)c(=O)c3)cc2)cc1F [Example 28, 4-[({4-[(3-Fluoro-4-methylphenyl)oxy]phenyl}methyl)oxy]-1-[(1-methyl-1H-pyrazol-4-yl)methyl]-2(1H)-pyridinone] |  | < 8.00
CCn1cc(F)c(OCCc2ccc(Oc3cccc(C(F)(F)F)n3)cc2)nc1=O [Example 63, 1-ethyl-5-fluoro-4-(4-((6-(trifluoromethyl)pyridin-2-yl)oxy)phenethoxy)pyrimidin-2(1H)-one, trifluoroacetic acid salt] |  | < 8.00
Cn1cc(Cn2ccc(OCc3ccc(Oc4cccc(C(F)(F)F)c4)cc3)cc2=O)cn1 [Example 25, 1-[(1-Methyl-1H-pyrazol-4-yl)methyl]-4-{[(4-{[3-(trifluoromethyl)phenyl]oxy}-phenyl)methyl]oxy}-2(1H)-pyridinone] |  | < 8.00
Cc1cccc(Oc2ccc(CCOc3nc(=O)n(Cc4cnn(C)c4)cc3F)cc2)n1 [Example 61, 5-fluoro-1-((1-methyl-1H-pyrazol-4-yl)methyl)-4-(4-((6-methylpyridin-2-yl)oxy)phenethoxy)pyrimidin-2(1H)-one] |  | < 8.00
Cn1cc(Cn2cc(Cl)c(OCCc3ccc(Cc4ccc(Cl)c(C(F)(F)F)c4)cc3)nc2=O)cn1 [Example 44, 5-chloro-4-(4-(4-chloro-3-(trifluoromethyl)benzyl)phenethoxy)-1-((1-methyl-1H-pyrazol-4-yl)methyl)pyrimidin-2(1H)-one] | ≤ 0.1 | 
CCn1cc(F)c(OCCc2ccc(Oc3ccc(Cl)c(C(F)(F)F)c3)nc2)nc1=O [Example 52, 4-(2-(6-(4-chloro-3-(trifluoromethyl)phenoxy)pyridin-3-yl)ethoxy)-1-ethyl-5-fluoropyrimidin-2(1H)-one] | ≤ 1 | 
COc1ncc(Cn2cc(F)c(OCCc3ccc(Oc4cccc(C)n4)cc3)nc2=O)cn1 [Example 62, 5-fluoro-1-((2-methoxypyrimidin-5-yl)methyl)-4-(4-((6-methylpyridin-2-yl)oxy)phenethoxy)pyrimidin-2(1H)-one] |  | < 8.00
O=c1cc(OCc2ccc(Oc3ccc(Cl)c(C(F)(F)F)c3)cc2)ccn1Cc1cncnc1 [Example 26, 4-{[(4-{[4-Chloro-3-(trifluoromethyl)phenyl]oxy}phenyl)methyl]oxy}-1-(5-pyrimidinylmethyl)-2(1H)-pyridinone] |  | < 8.00
COc1ncc(Cn2cc(Cl)c(OCCc3cnc(Oc4ccc(F)c(C(F)(F)F)c4)c(F)c3)nc2=O)cn1 [Example 37, 5-chloro-4-(2-(5-fluoro-6-(4-fluoro-3-(trifluoromethyl)phenoxy)pyridin-3-yl)ethoxy)-1-((2-methoxypyrimidin-5-yl)methyl)pyrimidin-2(1H)-one] | ≤ 0.1 | 

Other lines, results leading:

IC50 (Lp-PLA2 from plasma) [µM] | pIC50 [1] | SMILES
≤ 0.1 | ≥ 9.00 | COc1ncc(Cn2cc(F)c(OCCc3ccc(Cc4ccc(Cl)c(C(F)(F)F)c4)cc3)nc2=O)cn1 [Example 47, 4-(4-(4-chloro-3-(trifluoromethyl)benzyl)phenethoxy)-5-fluoro-1-((2-methoxypyrimidin-5-yl)methyl)pyrimidin-2(1H)-one]
≤ 0.1 | ≥ 9.00 | Cn1cc(Cn2cc(Cl)c(OCCc3cnc(Oc4ccc(Cl)c(C(F)(F)F)c4)c(F)c3)nc2=O)cn1 [Example 31, 5-Chloro-4-(2-(6-(4-chloro-3-(trifluoromethyl)phenoxy)-5-fluoropyridin-3-yl)ethoxy)-1-((1-methyl-1H-pyrazol-4-yl)methyl)pyrimidin-2(1H)-one]
≤ 0.1 | ≥ 9.00 | O=c1nc(OCCc2ccc(Oc3ccc(Cl)c(C(F)(F)F)c3)cc2)ccn1Cc1cncnc1 [Example 11, 4-{[2-(4-{[4-Chloro-3-(trifluoromethyl)phenyl]oxy}phenyl)ethyl]oxy}-1-(5-pyrimidinylmethyl)-2(1H)-pyrimidinone]
≤ 0.1 | ≥ 9.00 | Cn1cc(Cn2cc(F)c(OCCc3ccc(Cc4ccc(Cl)c(C(F)(F)F)c4)cc3)nc2=O)cn1 [Example 46, 4-(4-(4-chloro-3-(trifluoromethyl)benzyl)phenethoxy)-5-fluoro-1-((1-methyl-1H-pyrazol-4-yl)methyl)pyrimidin-2(1H)-one]
≤ 0.1 | ≥ 9.00 | Cc1cn(Cc2cnn(C)c2)c(=O)nc1OCCc1ccc(Oc2ccc(Cl)c(C(F)(F)F)c2)cc1 [Example 66, 4-(4-(4-chloro-3-(trifluoromethyl)phenoxy)phenethoxy)-5-methyl-1-((1-methyl-1H-pyrazol-4-yl)methyl)pyrimidin-2 (1H)-one]
≤ 0.1 | ≥ 9.00 | O=c1nc(OCCc2ccc(Oc3ccc(Cl)c(C(F)(F)F)c3)cc2)ccn1Cc1ccncc1 [Example 9, 4-{[2-(4-{[4-Chloro-3-(trifluoromethyl)phenyl]oxy}phenyl)ethyl]oxy}-1-(4-pyridinylmethyl)-2(1H)-pyrimidinone]
≤ 0.1 | ≥ 9.00 | Cn1cc(Cn2ccc(OCc3ccc(Oc4ccc(Cl)c(C(F)(F)F)c4)cc3)nc2=O)cn1 [Example 8, 4-{[(4-{[4-Chloro-3-(trifluoromethyl)phenyl]oxy}phenyl)methyl]oxy}-1-[(1-methyl-1H-pyrazol-4-yl)methyl]-2(1H)-pyrimidinone]
≤ 0.1 | ≥ 9.00 | COc1ncc(Cn2cc(Cl)c(OCCc3ccc(Cc4ccc(Cl)c(C(F)(F)F)c4)cc3)nc2=O)cn1 [Example 45, 5-chloro-4-(4-(4-chloro-3-(trifluoromethyl)benzyl)phenethoxy)-1-((2-methoxypyrimidin-5-yl)methyl)pyrimidin-2(1H)-one]
≤ 0.1 | ≥ 9.00 | Cn1cc(Cn2cc(F)c(OCCc3ccc(Oc4ccc(F)c(F)c4)c(F)c3)nc2=O)cn1 [Example 59, 4-(4-(3,4-difluorophenoxy)-3-fluorophenethoxy)-5-fluoro-1-((1-methyl-1H-pyrazol-4-yl)methyl)pyrimidin-2(1H)-one, trifluoroacetic acid salt]
≤ 0.1 | ≥ 9.00 | Cn1cc(Cn2cc(F)c(OCCc3cnc(Oc4ccc(Cl)c(C(F)(F)F)c4)c(F)c3)nc2=O)cn1 [Example 33, 4-(2-(6-(4-chloro-3-(trifluoromethyl)phenoxy)-5-fluoropyridin-3-yl)ethoxy)-5-fluoro-1-((1-methyl-1H-pyrazol-4-yl)methyl)pyrimidin-2(1H)-one]
